Values belong to the molecule of their own block, whether it stands above or below them.
Columns and labels:
[1] = Pharmacokinetic analysis in cynomolgus monkeys
Experimental: Pharmacokinetic Analysis of the Compound 36, Compound 121, Compound 214, and Orforglipron in Cynomolgus Monkeys
Non naïve male cynomolgus monkeys (n=3 monkeys/group) were fasted overnight and fed 4 hours post dose. Compounds of the present application were formulated in 10% polyethylene glycol 400/10% propylene glycol/80% glycine buffer (100 mM glycine, 64 mM NaOH, pH 10).
The compound was administered by i.v. infusion for 30 minutes at 0.12 mg/kg (dose volume 1 mL/kg at a speed of 2 mL/kg/h) or orally doses of 0.36 mg/kg. Blood samples were collected pre-dose and 0.25, 0.5 (just before the infusion is stopped), 0.75, 1, 1.5, 2.5, 4, 8, 16, 24 hr post dose for i.v. administration group. Blood samples were also collected pre-dose, 0.5, 1, 2, 3, 4, 8, 16 and 24 hr after administration in orally dosing group.

[2] = Pharmacokinetic analysis in male SD rats; type: in vivo
Experimental: The rats have free access to food and water. Blood samples were collected pre-dose and 0.083, 0.25, 0.5, 1, 2, 4, 8, 24 hours post dose for i.v. administration group. Blood samples were also collected pre-dose and 0.25, 0.5, 1, 2, 4, 8, and 24 hours after administration in orally dosing group.

[3] = target: T1, human GLP-1R (Homo sapiens, UniProt P43220); test: GLP-1R cAMP assay (Example B1b, HTRF, 30 min at 37°); type: cell-based; details: cAMP accumulation in HEK293 expressing human GLP-1R, no BETP, 30 min at 37° (Method B1b), Table 1
T1 construct: host or cells: HEK293
Experimental: Assay was carried out with HEK293 expressing human GLP-1R using HTRF assay, developed by Wuxi Apptec. The method is a competitive assay between native cAMP produced by the cells and exogenous cAMP labeled with a proprietary dye d2. The tracer binding is visualized by a mAb anti-cAMP labeled with Cryptate. The signal (i.e. energy transfer) is inversely proportional to the concentration of CAMP in either standard or experimental sample. Compounds were tested in the absence of BETP. Ten microliter of cell suspension in assay buffer (5 mM HEPES, 500 μM IBMX, 0.1% BSA) were added to each well (1,000 cells per well) in a low volume 384-well plate for the assay. Serially diluted compounds were added in 100 nL volume to duplicate wells, by Labcyte Echo. GLP-1 (7-37) was used as positive control. Assay plate was incubated for 30 minutes at 37°. Stock of cAMP Detection Solution was prepared by mixing 38 parts of cAMP lysis buffer, 1 part of cAMP-D2, 1 part of anti-cAMP cryptate reagent (Cisbio #62AM4PEJ). Ten microliter of the cAMP Detection Solution was added to each well, and the assay plate was incubated for 1 hour at room temperature in the dark. Plates were read on Envision plate reader. The data were analyzed by ScreenUltra in Dotmatics, with % activation expressed using following formula: (Signal ratio […]*10000−negative control)/(postive control−negative control)*100. Dose response curves were plotted and EC50 values calculated by non-linear regression using 4-parameter fit. The potency (EC50) values for cAMP accumulation in HEK293 cells are reported in the Table 1 below (for compounds ID 610-708).

[4] = male, cynomolgus monkey, plasma, iv, 0.12 mg/kg
[5] = male, cynomolgus monkey, plasma, po, 0.36 mg/kg
[6] = Sprague-Dawley (SD), rat, plasma, 1.0 mg/kg iv
[7] = Sprague-Dawley (SD), rat, plasma, 5.0 mg/kg po

T1 sequence (P43220 24-463): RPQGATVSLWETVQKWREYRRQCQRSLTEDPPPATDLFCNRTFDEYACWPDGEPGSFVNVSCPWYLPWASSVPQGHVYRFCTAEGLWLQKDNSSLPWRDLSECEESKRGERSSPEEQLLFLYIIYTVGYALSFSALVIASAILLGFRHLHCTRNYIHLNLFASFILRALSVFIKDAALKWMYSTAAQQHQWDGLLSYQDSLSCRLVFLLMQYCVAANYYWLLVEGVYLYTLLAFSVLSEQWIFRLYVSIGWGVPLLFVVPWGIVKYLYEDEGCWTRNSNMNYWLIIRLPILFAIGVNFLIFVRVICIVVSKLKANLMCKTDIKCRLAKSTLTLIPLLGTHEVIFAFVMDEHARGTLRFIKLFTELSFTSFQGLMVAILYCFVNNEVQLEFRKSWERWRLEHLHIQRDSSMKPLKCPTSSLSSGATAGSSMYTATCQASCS

Compound: Cc1cc(-n2nc3c(c2-n2ccn(-c4ccc5c(cnn5C)c4F)c2=O)[C@@H]2CC[C@H](C3)N2C(=O)c2c(F)c3cc(C4CCOC(C)(C)C4)ccc3n2[C@@]2(c3noc(=O)[nH]3)C[C@@H]2C)cc(C)c1F (stereo in doubt) [Compound 713, 3-[(1S,2S)-1-[5-[(4R)-2,2-dimethyltetrahydropyran-4-yl]-3-fluoro-2-[(1S,8R)-4-(4-fluoro-3,5-dimethyl-phenyl)-3-[3-(4-fluoro-1-methyl-indazol-5-yl)-2-oxo-imidazol-1-yl]-4,5,11-triazatricyclo[6.2.1.02,6]undeca-2,5-diene-11-carbonyl]indol-1-yl]-2-methyl-cyclopropyl]-4H-1,2,4-oxadiazol-5-one]
- EC50 [3]: 0.004 µM

Compound: Cc1cc(-n2nc3c(c2-n2ccn(-c4ccc5cnccc5c4F)c2=O)[C@@H]2CCC[C@H](C3)N2C(=O)c2cc3cc([C@H]4CCOC5(CC5)C4)ccc3n2[C@@]2(c3noc(=O)[nH]3)C[C@@H]2C)cc(C)c1F [Compound 614, 3-((1S,2S)-1-(2-((4S,8R)-2-(4-fluoro-3,5-dimethylphenyl)-3-(3-(5-fluoroisoquinolin-6-yl)-2-oxo-2,3-dihydro-1H-imidazol-1-yl)-4,5,6,7,8,9-hexahydro-2H-4,8-epiminocycloocta [c]pyrazole-10-carbonyl)-5-((S)-4-oxaspiro[2.5]octan-7-yl)-1H-indol-1-yl)-2-methylcyclopropyl)-1,2,4-oxadiazol-5 (4H)-one]
- EC50 [3]: 0.0006 µM

Compound: Cc1cc(-n2nc3c(c2-n2ccn(-c4ccc5c(cnn5C)c4F)c2=O)[C@@H]2CC[C@H](C3)N2C(=O)c2c(F)c3cc(C4CCOC(C)(C)C4)ccc3n2[C@@]2(c3noc(=O)[nH]3)C[C@@H]2C)cc(C)c1F (stereo partly drawn) [Compound 708, 3-[(1S,2S)-1-[5-(2,2-dimethyltetrahydropyran-4-yl)-3-fluoro-2-[(1S,8R)-4-(4-fluoro-3,5-dimethyl-phenyl)-3-[3-(4-fluoro-1-methyl-indazol-5-yl)-2-oxo-imidazol-1-yl]-4,5,11-triazatricyclo[6.2.1.02,6]undeca-2,5-diene-11-carbonyl]indol-1-yl]-2-methyl-cyclopropyl]-4H-1,2,4-oxadiazol-5-one]
- EC50 [3]: 0.0085 µM

Compound: Cc1cc(-n2nc3c(c2-n2ccn(-c4ccc(N(C)C(=O)C5CC5)c(Cl)c4)c2=O)[C@@H]2CCC[C@H](C3)N2C(=O)c2cc3cc([C@H]4CCOC(C)(C)C4)ccc3n2[C@@]2(c3noc(=O)[nH]3)C[C@@H]2C)cc(C)c1F [Compound 612, N-(2-chloro-4-(3-((4S,8R)-10-(5-((S)-2,2-dimethyltetrahydro-2H-pyran-4-yl)-1-((1S,2S)-2-methyl-1-(5-oxo-4,5-dihydro-1,2,4-oxadiazol-3-yl)cyclopropyl)-1H-indole-2-carbonyl)-2-(4-fluoro-3,5-dimethylphenyl)-4,5,6,7,8,9-hexahydro-2H-4,8-epiminocycloocta [c]pyrazol-3-yl)-2-oxo-2,3-dihydro-1H-imidazol-1-yl)phenyl)-N-methylcyclopropanecarboxamide]
- EC50 [3]: 0.0019 µM

The remaining lines, values ahead:

- Oral F ([1]; cynomolgus monkeys, 0.36 mg/kg po vs 0.12 mg/kg iv): 29.4%
- AUC(0-inf) [1, 4]: 517 ng·h/mL
- Vd [1, 4]: 0.846 L/kg
- clearance [1, 4]: 3.98 mL/min/kg
- half-life [1, 4]: 3.7 h
- AUC(0-inf) [1, 5]: 456 ng·h/mL
- Cmax [1, 5]: 79.5 ng/mL
- Tmax [1, 5]: 1.33 h
- half-life [1, 5]: 4.24 h
- Oral F ([2]; 5.0 mg/kg po vs 1.0 mg/kg iv): 11.2%
- AUC(0-inf) [2, 6]: 6840 ng·h/mL
- clearance [2, 6]: 2.47 mL/min/kg
- half-life [2, 6]: 8.13 h
- Vd ([2]; Sprague-Dawley (SD), rat, plasma, 1.0 mg/kg iv, read-out: Vdss): 1.42 L/kg
- AUC(0-inf) [2, 7]: 3420 ng·h/mL
- Cmax [2, 7]: 240 ng/mL
- Tmax [2, 7]: 4 h
- half-life [2, 7]: 7.44 h
Compound: Cc1cc(-n2nc3c(c2-n2ccn(-c4ccc5c(cnn5C)c4F)c2=O)[C@H](C)N(C(=O)c2cc4cc([C@H]5CCOC(C)(C)C5)ccc4n2[C@@]2(c4noc(=O)[nH]4)C[C@@H]2C)CC3)cc(C)c1F [Orforglipron, orforglipron, reference compound]

- EC50 [3]: 0.0024 µM
Compound: Cc1cc(-n2nc3c(c2-n2ccn(-c4ccc5c(cnn5C)c4F)c2=O)[C@@H]2COC[C@H](C3)N2C(=O)c2cc3cc([C@H]4CCOC(C)(C)C4)cc(F)c3n2[C@@]2(c3noc(=O)[nH]3)C[C@@H]2C)cc(C)c1F [Compound 705, 3-((1S,2S)-1-(5-((S)-2,2-dimethyltetrahydro-2H-pyran-4-yl)-7-fluoro-2-((4R,8S)-3-(3-(4-fluoro-1-methyl-1H-indazol-5-yl)-2-oxo-2,3-dihydro-1H-imidazol-1-yl)-2-(4-fluoro-3,5-dimethylphenyl)-2,4,5,7,8,9-hexahydro-4,8-epiminooxocino [5,4-c]pyrazole-10-carbonyl)-1H-indol-1-yl)-2-methylcyclopropyl)-1,2,4-oxadiazol-5(4H)-one]

- EC50 [3]: 0.0296 µM
Compound: Cc1cc(-n2nc3c(c2-n2ccn(-c4ccc5c(cnn5C)c4F)c2=O)[C@@H]2CC[C@H](C3)N2C(=O)c2cc3cc(C4CCOC(C)(C)C4)cc(F)c3n2[C@@]2(c3noc(=O)[nH]3)C[C@@H]2C)cc(C)c1F (stereo partly drawn) [Compound 618, 3-[(1S,2S)-1-[5-(2,2-dimethyltetrahydropyran-4-yl)-7-fluoro-2-[(1S,8R)-4-(4-fluoro-3,5-dimethyl-phenyl)-3-[3-(4-fluoro-1-methyl-indazol-5-yl)-2-oxo-imidazol-1-yl]-4,5,11-triazatricyclo[6.2.1.02,6]undeca-2,5-diene-11-carbonyl]indol-1-yl]-2-methyl-cyclopropyl]-4H-1,2,4-oxadiazol-5-one]

- EC50 [3]: 0.0505 µM
Compound: Cc1cc(-n2nc3c(c2-n2ccn(-c4ccc5c(cnn5C)c4F)c2=O)[C@@H]2CC[C@H](C3)N2C(=O)c2cc3cc([C@H]4CCOC(C)(C)C4)ccc3n2[C@@]2(c3noc(=O)n3C)C[C@@H]2C)cc(C)c1F [Compound 613, 3-[(1S,2S)-1-[5-[(4S)-2,2-dimethyltetrahydropyran-4-yl]-2-[(1S,8R)-4-(4-fluoro-3,5-dimethyl-phenyl)-3-[3-(4-fluoro-1-methyl-indazol-5-yl)-2-oxo-imidazol-1-yl]-4,5,11-triazatricyclo[6.2.1.02,6]undeca-2,5-diene-11-carbonyl]indol-1-yl]-2-methyl-cyclopropyl]-4-methyl-1,2,4-oxadiazol-5-one]

- EC50 [3]: 0.0024 µM
Compound: Cc1cc(-c2nn3c(c2-n2ccn(-c4ccc5c(cnn5C)c4F)c2=O)[C@H](C)N(C(=O)c2cc4cc([C@H]5CCOC(C)(C)C5)ccc4n2[C@@]2(c4noc(=O)[nH]4)C[C@@H]2C)CCC3)cc(C)c1F [Compound 703, 3-((1S,2S)-1-(5-((S)-2,2-dimethyltetrahydro-2H-pyran-4-yl)-2-((S)-3-(3-(4-fluoro-1-methyl-1H-indazol-5-yl)-2-oxo-2,3-dihydro-1H-imidazol-1-yl)-2-(4-fluoro-3,5-dimethylphenyl)-4-methyl-5,6,7,8-tetrahydro-4H-pyrazolo[1,5-a][1,4]diazepine-5-carbonyl)-1H-indol-1-yl)-2-methylcyclopropyl)-1,2,4-oxadiazol-5 (4H)-one]
